Assay results: US9029389B2 (Institut Pasteur Korea, priority 2011, dated 2015)

What follows are compounds tested against T1, Human 5-lipoxygenase (Homo sapiens, UniProt P09917) (assay: Activity of compounds against 5-LO enzyme (LTB4 measurement and/or fluorescence method)). Conditions: 5-LO, single concentration of 10 uM in duplicate.
T1 construct: purchased Cayman 60402; host or cells: insect cells
T1 sequence (P09917 1-674): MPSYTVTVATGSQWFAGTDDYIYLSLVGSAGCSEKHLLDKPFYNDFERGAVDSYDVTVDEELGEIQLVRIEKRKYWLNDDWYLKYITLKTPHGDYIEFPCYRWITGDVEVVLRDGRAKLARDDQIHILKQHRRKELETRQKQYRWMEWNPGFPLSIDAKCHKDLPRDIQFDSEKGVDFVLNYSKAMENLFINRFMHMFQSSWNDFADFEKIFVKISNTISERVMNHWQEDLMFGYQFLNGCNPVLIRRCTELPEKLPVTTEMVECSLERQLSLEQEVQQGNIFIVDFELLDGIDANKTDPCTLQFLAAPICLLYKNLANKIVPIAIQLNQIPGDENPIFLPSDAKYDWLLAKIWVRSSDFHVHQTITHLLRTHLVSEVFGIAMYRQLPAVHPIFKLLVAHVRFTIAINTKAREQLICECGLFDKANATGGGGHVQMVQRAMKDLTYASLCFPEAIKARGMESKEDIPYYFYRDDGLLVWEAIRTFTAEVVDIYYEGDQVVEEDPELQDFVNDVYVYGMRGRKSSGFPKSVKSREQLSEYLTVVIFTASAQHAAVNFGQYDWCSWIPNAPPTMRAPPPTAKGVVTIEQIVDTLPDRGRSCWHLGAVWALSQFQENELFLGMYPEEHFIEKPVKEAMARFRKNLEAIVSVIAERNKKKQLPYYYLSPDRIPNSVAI
Type: biochemical
Procedure: The activity of compounds against 5-LO were determined by measuring LTB4 (leukotriene B4) levels and/or by a fluorescence method. Both approaches are outlined in more detail below;
Human 5-lipoxygenase (Cayman, Cat#60402) produced in insect cells was pre-incubated with compound for 15 min at RT in incubation buffer (50 mM Tris-Cl, pH 7.4, 2 mM CaCl2, 0.1 mM ATP, 1% DMSO). The enzymatic reaction was started by adding arachidonic acid to a final concentration of 3 uM. After 5 min of incubation at 37° C., the reaction was stopped by heatinactivation at 80° C. for 5 min. LTB4 levels were quantified by using LTB4 EIA kit (Cayman, Cat#520111) as instructed and/or LTB4 levelswere measured with LC/MS/MS using Quattro Premier™ XE tandem quadrupole mass spectrometer equipped with Acquity UPLC system (Waters, Milford, Mass.). The method was slightly modified as reported previously (Zweifel et al., 2008, Willey et al., 2008, Chappell et al, 2011). Briefly, chromatographic separation was carried out with Acquity UPLC BEH Shield RP18 Column (2.1 mm×50 mm, 1.7 μm particle size, Waters, Milford, Mass.). Sample injection volume was 10 μl, the column temperature was 35° C., the mobile phase A consisted of water with 0.1% formic acid and the mobile phase B consisted of acetonitrile with 0.1% formic acid. Flow rate was 0.4 mL/min and the gradient condition was as follows.
Relative quantification of LTB4 and LTB4-d4 (Internal Standard) was done using multi reaction monitoring (MRM) of the transitions of m/z 335→195 for LTB4, 339→197 for LTB4-d4 in electrospray ionization (ESI) negative mode. Desolvation temperature was 400° C., source temperature was 130° C. Capillary voltage, cone voltage, and collision voltage were 3.5 kV, 30V, and 20 eV, respectively. Nitrogen was used for desolvation (750 L/h) and cone (50 L/h) gas. Argon was used for collision gas (0.22 ml/min). The dwell time was 10 ms.
Besides the two methods quantifying LTB4 level, a fluorescence assay measuring 5-HpETE was introduced for high-throughput screening in a 384 well microplate format (Pufahl et al., 2007). For nonspecific ester cleavage of the acetate groups in H2DCFDA, the insect cell lysate expressing human 5-LO (Cayman Cat#60402) was incubated with H2DCFDA (50 mM Tris-Cl, pH 7.5, 2 mM CaCl2, 20 uM H2DCFDA, 500 mU 5-LO per reaction) for 5 minutes. Compound and enzyme mixture were pre-incubated for 5 minutes, and the enzymatic reaction was initiated by addition of ATP and arachidonic acid to a final concentration of 100 uM and 3 uM, respectively. After 5 minutes of incubation, the fluorescence was measured using Spectramax M5 (Molecular Device, Ex/Em=485 nm/530 nm). All steps were carried out at room temperature.
A total of 378 compounds were initially tested at a single concentration of 10 uM in duplicate with the results summarized in Table 1. From these 378 compounds, 53 compounds plus an additional 25 were selected for confirmation of activity by 6 or 11 point dose response in duplicate with the corresponding IC50 values outlined in Table 2.

inhibition at 10 µM | SMILES
40 to 69% | CCc1nc2cc(Cl)ccn2c1C(=O)NCc1ccc(-c2ccc(C=O)cc2)cc1 [compound 287, 7-Chloro-2-ethyl-N-((4′-formylbiphenyl-4-yl)methyl)imidazo[1,2-a]pyridine-3-carboxamide]
< 40% | CCc1nc2ccc(Cl)cn2c1C(=O)NCc1ccc(N2CCC(C(=O)c3ccc(F)cc3)CC2)cc1 [compound 323, 6-chloro-2-ethyl-N-(4-(4-(4-fluorobenzoyl)piperidin-1-yl)benzyl)imidazo[1,2-a]pyridine-3-carboxamide]
40 to 69% | CCc1nc2ccc(Cl)cn2c1C(=O)NCc1ccc(-c2ccccc2C)cc1 [compound 75, 6-Chloro-2-ethyl-N-((2′-methylbiphenyl-4-yl)methyl)imidazo[1,2-a]pyridine-3-carboxamide]
< 40% | CCc1nc2ccc(Cl)cn2c1C(=O)NCc1ccc2c(ccn2C)c1 [compound 67]
< 40% | CCc1nc2ccc(Cl)cn2c1C(=O)NCc1ccc(OCc2ccc(OC(F)(F)F)cc2)cc1 [compound 170]
40 to 69% | CCc1nc2ccc(Cl)cn2c1C(=O)NCc1ccc(-c2ccc(C#N)cc2C)cc1 [compound 104, 6-Chloro-N-((4′-cyano-2′-methylbiphenyl-4-yl)methyl)-2-ethylimidazo[1,2-a]pyridine-3-carboxamide]
> 69% | CCc1nc2cc(Cl)ccn2c1C(=O)NCc1ccc(-c2ccc(Cl)cc2C(F)(F)F)cc1 [compound 103, 7-Chloro-N-((4′-chloro-2′-(trifluoromethyl)biphenyl-4-yl)methyl)-2-ethylimidazo[1,2-a]pyridine-3-carboxamide]
< 40% | CCc1nc2ccc(Cl)cn2c1C(=O)NCc1ccc(-c2cccc(C#N)c2)cc1 [compound 99, 6-Chloro-N-((3′-cyanobiphenyl-4-yl)methyl)-2-ethylimidazo[1,2-a]pyridine-3-carboxamide]
40 to 69% | CCc1nc2cc(Cl)ccn2c1C(=O)NCc1ccc(-c2ccc(OC(F)(F)F)cc2)cc1 [compound 112, 7-Chloro-2-ethyl-N-((4′-(trifluoromethoxy)biphenyl-4-yl)methyl)imidazo[1,2-a]pyridine-3-carboxamide]
< 40% | CCc1nc2ccc(Cl)cn2c1C(=O)NCc1ccc(N2CCC(O)(c3ccccc3)CC2)cc1 [compound 328, 6-chloro-2-ethyl-N-(4-(4-hydroxy-4-phenylpiperidin-1-yl)benzyl)imidazo[1,2-a]pyridine-3-carboxamide]

The remaining lines, values behind:

SMILES | inhibition at 10 µM
Cc1nc2ccc(F)cn2c1C(=O)NCc1ccccc1 [compound 40, N-Benzyl-6-fluoro-2-methylimidazo[1,2-a]pyridine-3-carboxamide] | < 40%
Cc1nc2ccccn2c1C(=O)NCc1ccc(-c2ccccc2)cc1 [compound 20, N-(Biphenyl-4-ylmethyl)-2-methylimidazo[1,2-a]pyridine-3-carboxamide] | 40 to 69%
CCc1nc2cc(Cl)ccn2c1-c1nnc(Cc2ccc(F)cc2)o1 [compound 348, 2-(7-chloro-2-ethylimidazo[1,2-a]pyridin-3-yl)-5-(4-fluorobenzyl)-1,3,4-oxadiazole] | < 40%
CCc1nc2ccc(Cl)cn2c1C(=O)NCc1ccc(N2CCC(COC3CCCC3)CC2)cc1 [compound 285, 6-Chloro-N-(4-(4-(cyclopentyloxymethyl)piperidin-1-yl)benzyl)-2-ethylimidazo[1,2-a]pyridine-3-carboxamide] | < 40%
CCc1nc2cc(OC)ccn2c1C(=O)NCc1ccc(N2CCOCC2)cc1 [compound 261, 2-Ethyl-7-methoxy-N-(4-morpholinobenzyl)imidazo[1,2-a]pyridine-3-carboxamide] | < 40%
CCc1nc2ccc(Cl)cn2c1CNc1ccc(OC(F)(F)F)cc1 [compound 144, N-((6-Chloro-2-ethylimidazo[1,2-a]pyridin-3-yl)methyl)-4-(trifluoromethoxy)aniline] | 40 to 69%
CCc1nc2cc(Cl)ccn2c1C(=O)OCc1ccc(Oc2ccc(F)cc2)cc1 [compound 203] | < 40%
CCc1nc2ccc(Cl)cn2c1C(=O)NCc1ccc(N2CCC(C(=O)c3ccc(OC(F)(F)F)cc3)CC2)cc1 [compound 324, 6-chloro-2-ethyl-N-(4-(4-(4-(trifluoromethoxy)benzoyl)piperidin-1-yl)benzyl)imidazo[1,2-a]pyridine-3-carboxamide] | > 69%
CCc1nc2ccc(Cl)cn2c1C(=O)NCc1ccc(N2CCC(Oc3ccc(OC(F)(F)F)cc3)CC2)cc1 [compound 122, 6-Chloro-2-ethyl-N-(4-(4-(4-(trifluoromethoxy)phenoxy)piperidin-1-yl)benzyl)imidazo[1,2-a]pyridine-3-carboxamide] | 40 to 69%
Cc1nc2cc(C#N)ccn2c1C(=O)NCc1ccccc1 [compound 42, N-Benzyl-7-cyano-2-methylimidazo[1,2-a]pyridine-3-carboxamide] | < 40%
CCc1nc2cc(Cl)ccn2c1C(=O)NCc1ccc(N2CCC(C(=O)O)CC2)cc1 [compound 275, 1-(4-((7-Chloro-2-ethylimidazo[1,2-a]pyridine-3-carboxamido)methyl)phenyl)piperidine-4-carboxylic acid] | < 40%
CCOC(=O)C1CCN(c2ccc(CNC(=O)c3c(CC)nc4cc(Cl)ccn34)cc2)CC1 [compound 270, Ethyl 1-(4-((7-chloro-2-ethylimidazo[1,2-a]pyridine-3-carboxamido)methyl)phenyl)piperidine-4-carboxylate] | 40 to 69%
CCc1nc2ccc(Cl)cn2c1C(=O)NCc1nc2ccc(Cl)cc2[nH]1 [compound 365, 6-chloro-N-((6-chloro-1H-benzo[d]imidazol-2-yl)methyl)-2-ethylimidazo[1,2-a]pyridine-3-carboxamide] | < 40%
CCc1nc2cc(Cl)ccn2c1NC(=O)c1ccc(-c2ccccc2)cc1 [compound 115, N-(7-Chloro-2-ethylimidazo[1,2-a]pyridin-3-yl)biphenyl-4-carboxamide] | 40 to 69%
Cc1nc2c(C)cccn2c1C(=O)NCc1ccccc1 [compound 31, N-Benzyl-2,8-dimethylimidazo[1,2-a]pyridine-3-carboxamide] | < 40%
CCc1nc2ccc(Cl)cn2c1CNCc1ccc(N(C)C)cc1 [compound 339, 4-((((6-chloro-2-ethylimidazo[1,2-a]pyridin-3-yl)methyl)amino)methyl)-N,N-dimethylaniline] | < 40%
Cc1nc2c(C#N)cccn2c1C(=O)NCc1ccccc1 [compound 47, N-Benzyl-8-cyano-2-methylimidazo[1,2-a]pyridine-3-carboxamide] | < 40%
CCc1nc2cc(Cl)ccn2c1C(=O)NCc1ccc(Oc2ccc(OC(F)(F)F)cc2)nc1 [compound 190, 7-Chloro-2-ethyl-N-((6-(4-(trifluoromethoxy)phenoxy)pyridin-3-yl)methy)imidazo[1,2-a]pyridine-3-carboxamide] | > 69%

Same assay, conditions: 6 or 11 point dose response in duplicate

IC50 | SMILES
1 to 20 µM | CCc1nc2ccc(Cl)cn2c1C(=O)NCc1ccc(-c2ccccc2C)cc1 [compound 75, 6-Chloro-2-ethyl-N-((2′-methylbiphenyl-4-yl)methyl)imidazo[1,2-a]pyridine-3-carboxamide]
1 to 20 µM | CCc1nc2cc(Cl)ccn2c1C(=O)NCc1ccc(-c2ccc(Cl)cc2C(F)(F)F)cc1 [compound 103, 7-Chloro-N-((4′-chloro-2′-(trifluoromethyl)biphenyl-4-yl)methyl)-2-ethylimidazo[1,2-a]pyridine-3-carboxamide]
1 to 20 µM | CCc1nc2cc(Cl)ccn2c1C(=O)NCc1ccc(Oc2ccc(OC(F)(F)F)cc2)nc1 [compound 190, 7-Chloro-2-ethyl-N-((6-(4-(trifluoromethoxy)phenoxy)pyridin-3-yl)methy)imidazo[1,2-a]pyridine-3-carboxamide]
